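Exposure lasted 48 hours, with cells grown in 96-well plates and compounds tested at five concentrations. Abbreviation: GI50, concentration required for 50% inhibition of growth. TGI denotes the concentration required for complete inhibition of growth.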
Experiments:
Assay in all cases: growth of human tumour cells (NCI), 48 h
[1] = system: SW-620 colon
[2] = system: HOP-62 NSCLC
[3] = system: RXF 393 renal
[4] = system: KM12 colon
[5] = system: NCI-H522 lung
[6] = system: SK-MEL-2 melanoma
[7] = system: MALME-3M melanoma
[8] = system: HT29 colon
[9] = system: HCT-15 colon
[10] = system: CCRF-CEM leukemia

Compound	TGI [1]	TGI [2]	TGI [3]	TGI [4]	TGI [5]	TGI [6]	TGI [7]	TGI [8]	GI50 [1]	GI50 [9]	TGI [9]	GI50 [10]	TGI [10]	GI50 [2]	GI50 [3]	GI50 [4]	GI50 [5]	GI50 [6]	GI50 [8]	GI50 [7]
CCN(CC)c1ccc2c(c1)Nc1cc(=C(C#N)C#N)c3ccccc3c1=N2	> 100 µM	> 100 µM	> 100 µM	> 100 µM	> 100 µM	> 100 µM	> 100 µM	> 100 µM	–	–	–	–	–	–	–	–	–	–	–	–
C/C(=N\NC(N)=S)c1nc2ccc(Cl)cc2[nH]1	> 50 µM	11.9 µM	28.7 µM	16.2 µM	7.9 µM	44.6 µM	–	14 µM	2.96 µM	0.857 µM	12.5 µM	2.11 µM	> 50 µM	2.7 µM	4.59 µM	2.03 µM	1.24 µM	2.81 µM	2.32 µM	–
Cc1cc2c(=O)c3ccccc3[nH]c2c(C(=O)O)c1C	> 100 µM	> 100 µM	> 100 µM	> 100 µM	–	> 100 µM	–	> 100 µM	–	–	> 100 µM	–	> 100 µM	–	–	–	–	–	–	–
COc1ccc(/C=C2\C(=O)N(C(=O)Cc3ccccc3)N=C2C)cc1OC	> 100 µM	> 100 µM	–	> 100 µM	> 100 µM	> 100 µM	> 100 µM	> 100 µM	–	–	> 100 µM	–	> 100 µM	–	–	–	–	–	–	–
CCOC(=O)CC1NC(=O)CS1 (configuration not stated)	37.4 µM	> 100 µM	–	> 100 µM	–	–	> 100 µM	> 100 µM	–	–	45.1 µM	–	> 100 µM	–	–	–	–	–	–	–
CCN(CCNc1ccc(C)c2sc3ccccc3c(=O)c12)CC(C)(C)O	15.8 µM	34.3 µM	–	14.1 µM	47.8 µM	33 µM	54.6 µM	7.84 µM	4.63 µM	2.59 µM	7.78 µM	6.95 µM	34.5 µM	14.6 µM	–	4.23 µM	14.9 µM	11.9 µM	2.68 µM	17.8 µM
Cc1c2cc[n+](C)cc2c(C)c2c1[nH]c1ccc(O)c(OCC(F)(F)F)c12	> 55 µM	5.28 µM	–	–	3.55 µM	17.6 µM	8.47 µM	> 55 µM	–	–	–	–	28.4 µM	–	–	–	–	–	–	–
BrC1(Br)C2/C=C\CCCCC21 (configuration not stated)	> 100 µM	> 100 µM	> 100 µM	> 100 µM	> 100 µM	> 100 µM	> 100 µM	> 100 µM	–	–	–	–	> 100 µM	–	–	–	–	–	–	–
COC1CC(OC(=O)c2ccccc2)C(OC(=O)c2ccccc2)C(C)O1 (configuration not stated)	> 100 µM	> 100 µM	> 100 µM	> 100 µM	> 100 µM	> 100 µM	> 100 µM	–	–	–	> 100 µM	–	> 100 µM	–	–	–	–	–	–	–
O=[N+]([O-])c1nccn1COCCBr	> 100 µM	> 100 µM	–	> 100 µM	> 100 µM	> 100 µM	> 100 µM	> 100 µM	–	–	> 100 µM	–	> 100 µM	–	–	–	–	–	–	–
